# Measurements as given in US8148361B2, “Kinase inhibitors” (Bristol-Myers Squibb Company, priority 2006, dated 2012).
# pIC50: −log10 of the molar value.
# Molecular target: T1, IGF-1 receptor tyrosine kinase (Homo sapiens, UniProt P08069)
# T1 construct: host or cells: baculovirus expression system
# Assay: IGF-receptor tyrosine kinase assay
# Format: biochemical
# Details: poly(Glu/Tyr) substrate, 25 μM ATP, baculovirus expressed enzyme; read-out: IGF1R IC50
# Description: 3. IGF-Receptor Tyrosine Kinase Assay
# The IGF-1 receptor tyrosine kinase was assayed using the synthetic polymer poly(Glu/Tyr) (Sigma Chemicals) as a phosphoacceptor substrate. Each reaction mixture consisted of a total volume of 50 ul and contained 125 ng of baculovirus expressed enzyme, 2.5 μg of poly(Glu/Tyr), 25 μM of ATP, and 0.1 μCi of [γ-^33P]ATP. The mixtures also contained 20 mM MOPS, pH 7.0, 5 mM MnCl2, 0.5 mM […], and 0.1 mg/ml bovine serum albumin. The reaction mixtures were incubated at 30° C. for 45 minutes and kinase activity was determined by quantitation of the amount of radioactive phosphate transferred to the poly(Glu/Tyr) substrate. Incorporation was measured by the addition of cold trichloroacetic acid (TCA) precipitation of the proteins which were collected onto GF/C unifilter plates (Packard Instrument Co., Meriden, Conn.) using a Filtermate universal harvester and the filters were quantitated using a TopCount 96-well liquid scintillation counter (Packard Instrument Co., Meriden, Conn.). Compounds were dissolved in dimethyl sulfoxide to a concentration of 10 mM and were evaluated at six concentrations, each in triplicate.
# T1 sequence (P08069 31-1367): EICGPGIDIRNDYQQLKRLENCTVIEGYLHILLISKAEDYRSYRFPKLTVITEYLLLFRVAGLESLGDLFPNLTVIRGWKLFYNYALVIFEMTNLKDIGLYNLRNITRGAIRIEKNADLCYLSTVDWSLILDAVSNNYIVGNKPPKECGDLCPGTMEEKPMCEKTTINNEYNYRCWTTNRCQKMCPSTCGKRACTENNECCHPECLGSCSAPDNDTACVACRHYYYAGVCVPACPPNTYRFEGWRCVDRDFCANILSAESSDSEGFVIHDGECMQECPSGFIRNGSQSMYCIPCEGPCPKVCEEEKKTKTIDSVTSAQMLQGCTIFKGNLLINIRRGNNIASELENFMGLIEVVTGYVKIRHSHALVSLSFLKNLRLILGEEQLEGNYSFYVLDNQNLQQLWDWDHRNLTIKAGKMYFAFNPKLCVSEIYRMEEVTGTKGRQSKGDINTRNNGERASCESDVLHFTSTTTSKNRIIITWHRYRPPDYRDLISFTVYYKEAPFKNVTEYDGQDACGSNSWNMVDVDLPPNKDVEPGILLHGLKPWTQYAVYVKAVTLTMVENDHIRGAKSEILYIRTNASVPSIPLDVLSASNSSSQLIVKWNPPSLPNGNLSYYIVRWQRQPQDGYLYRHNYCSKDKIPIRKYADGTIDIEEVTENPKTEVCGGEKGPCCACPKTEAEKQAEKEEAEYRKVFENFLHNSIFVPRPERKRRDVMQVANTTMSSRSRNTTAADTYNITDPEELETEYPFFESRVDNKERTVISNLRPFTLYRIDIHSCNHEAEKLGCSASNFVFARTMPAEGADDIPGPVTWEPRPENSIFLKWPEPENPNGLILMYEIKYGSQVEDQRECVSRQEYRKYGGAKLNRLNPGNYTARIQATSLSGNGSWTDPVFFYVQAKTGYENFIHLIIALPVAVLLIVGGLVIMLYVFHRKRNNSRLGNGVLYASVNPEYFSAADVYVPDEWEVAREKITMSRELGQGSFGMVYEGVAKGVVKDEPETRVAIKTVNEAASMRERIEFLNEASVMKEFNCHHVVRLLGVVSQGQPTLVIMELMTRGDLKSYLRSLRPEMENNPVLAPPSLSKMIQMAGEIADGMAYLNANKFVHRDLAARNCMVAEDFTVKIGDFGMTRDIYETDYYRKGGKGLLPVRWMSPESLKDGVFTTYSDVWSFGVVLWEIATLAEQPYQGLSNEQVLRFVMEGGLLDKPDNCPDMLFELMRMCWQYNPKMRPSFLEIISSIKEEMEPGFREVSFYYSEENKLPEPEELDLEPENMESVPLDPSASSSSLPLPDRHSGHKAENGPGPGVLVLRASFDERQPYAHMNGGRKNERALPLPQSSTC
row,Structure (SMILES),pIC50
1,"O=C(NC1CN(S(=O)(=O)c2ccc(F)cc2)C1)c1cccc(Sc2cnc3[nH]c(-c4ccccc4)cc3c2)c1 [Example 13, N-(1-(4-fluorophenylsulfonyl)azetidin-3-yl)-3-(2-phenyl-1H-pyrrolo[2,3-b]pyridin-5-ylthio)benzamide]",6.70

# Molecular target: VEGFR-2 (Homo sapiens, UniProt P35968)
# Sequence (P35968 20-1356): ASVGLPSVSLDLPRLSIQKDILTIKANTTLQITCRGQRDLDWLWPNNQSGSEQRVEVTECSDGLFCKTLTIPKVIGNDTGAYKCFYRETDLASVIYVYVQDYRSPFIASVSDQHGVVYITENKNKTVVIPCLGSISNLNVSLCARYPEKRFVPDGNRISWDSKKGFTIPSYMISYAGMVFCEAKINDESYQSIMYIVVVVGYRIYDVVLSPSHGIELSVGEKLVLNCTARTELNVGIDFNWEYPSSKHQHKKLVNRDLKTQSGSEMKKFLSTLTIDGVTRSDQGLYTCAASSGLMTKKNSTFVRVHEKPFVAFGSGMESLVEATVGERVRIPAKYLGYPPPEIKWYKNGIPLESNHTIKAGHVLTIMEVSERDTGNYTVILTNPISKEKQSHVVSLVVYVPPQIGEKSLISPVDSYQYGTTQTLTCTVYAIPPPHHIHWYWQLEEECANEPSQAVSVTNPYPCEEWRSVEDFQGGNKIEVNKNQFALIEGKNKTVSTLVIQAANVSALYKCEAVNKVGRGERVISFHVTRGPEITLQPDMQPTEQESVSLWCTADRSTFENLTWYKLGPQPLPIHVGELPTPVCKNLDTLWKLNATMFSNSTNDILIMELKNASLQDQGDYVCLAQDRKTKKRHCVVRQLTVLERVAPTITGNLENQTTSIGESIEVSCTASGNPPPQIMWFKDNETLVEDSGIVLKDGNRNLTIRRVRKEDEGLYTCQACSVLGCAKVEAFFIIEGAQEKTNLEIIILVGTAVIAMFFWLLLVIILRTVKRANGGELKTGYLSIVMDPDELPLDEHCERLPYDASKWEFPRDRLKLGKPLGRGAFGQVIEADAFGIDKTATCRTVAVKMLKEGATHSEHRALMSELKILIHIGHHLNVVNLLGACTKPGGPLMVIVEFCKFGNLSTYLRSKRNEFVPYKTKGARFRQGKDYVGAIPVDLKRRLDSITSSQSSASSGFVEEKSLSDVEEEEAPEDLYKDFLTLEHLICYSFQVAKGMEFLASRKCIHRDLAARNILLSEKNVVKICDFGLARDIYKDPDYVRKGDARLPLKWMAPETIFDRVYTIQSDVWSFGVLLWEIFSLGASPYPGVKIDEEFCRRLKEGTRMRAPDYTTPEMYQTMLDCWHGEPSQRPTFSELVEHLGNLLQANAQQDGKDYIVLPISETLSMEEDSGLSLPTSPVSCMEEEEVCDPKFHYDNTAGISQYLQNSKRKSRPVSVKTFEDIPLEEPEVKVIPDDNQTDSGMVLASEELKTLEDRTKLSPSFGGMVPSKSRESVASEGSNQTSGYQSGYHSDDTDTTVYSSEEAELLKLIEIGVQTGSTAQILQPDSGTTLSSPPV
# Assay: VEGFR-2 kinase assay
# Format: biochemical
# Details: poly glu/tyr substrate, 33P-ATP; read-out: VEGFR2 IC50
# Description: 1. VEGFR-2 and FGFR-1 Kinase Assays:
# Incubation mixtures employed for VEGFR-2 or FGFR-1 assay contain the synthetic substrate poly glu/tyr, (4:1), ATP, ATP-γ-^33P and buffer containing Mn^++ and/or Mg^++, DTT, BSA, and Tris buffer. The reaction is initiated by addition of enzyme and after 60 minutes at room temperature is terminated by the addition of 30% TCA to a final concentration of 15% TCA. Inhibitors are brought to 10 mM in 100% DMSO. Assays are prepared in a 96 well format in quadruplicate. Compounds are diluted 1:500 in 100% DMSO and then 1:10 in water for a final DMSO concentration of 10%. 10 μL are added to rows B-H in a 96 well format of 10% DMSO. 20 μl of compound is added to row A at a concentration 5 fold higher than running conditions. Ten μL are transferred to each row followed by six serial dilutions with mixing, and at row F 10 μL are discarded. Row G is a control with no compound and row H is no compound and no enzyme control. Enzyme and substrate are delivered using a Tomtec Quadra station.
# Plates are covered with sticky plate tops, incubated at 27° C. for 60 minutes, and then acid precipitated with TCA for 20 minutes on ice. The precipitate is transferred to UniFilter-96, GF/C microplates using either a Tomtec or Packard FilterMate harvester. Activity is determined by quantitating the incorporated radioactivity using a Packard TopCount Microplate Scintillation Counter following the addition of Microscint-20 cocktail into each dried well of the UniFilter microplates.
row,Structure (SMILES),pIC50
1,"O=C(NC1CC1)c1ccc(F)c(NCc2cnc3[nH]c(-c4ccccc4)cc3c2)c1 [Example 1, N-Cyclopropyl-4-fluoro-3-{(2-phenyl-1H-pyrrolo[2,3-b]pyridin-5-yl)methylamino}benzamide]",7.80
2,"O=C(NC1CC1)c1cc(NCc2cnc3[nH]c(-c4ccccc4)cc3c2)c(F)cc1F [Example 2, N-cyclopropyl-2,4-difluoro-5-((2-phenyl-1H-pyrrolo[2,3-b]pyridin-5-yl)methylamino)benzamide]",7.19
3,"O=C(NC1CC1)c1ccc(F)c(CNc2cnc3[nH]c(-c4ccccc4)cc3c2)c1 [Example 3, N-cyclopropyl-4-fluoro-3-((2-phenyl-1H-pyrrolo[2,3-b]pyridin-5-ylamino)methyl)benzamide]",6.99
4,"O=C(NC1CC1)c1ccc(F)c(NCc2cnc3[nH]c(C4CC4)cc3c2)c1 [Example 4, N-cyclopropyl-3-((2-cyclopropyl-1H-pyrrolo[2,3-b]pyridin-5-yl)methylamino)-4-fluorobenzamide]",6.84
5,"O=C(NC1CC1)c1ccc(F)c(NCc2cnc3[nH]c(-c4cccnc4)cc3c2)c1 [Example 5, N-cyclopropyl-4-fluoro-3-((2-(pyridin-3-yl)-1H-pyrrolo[2,3-b]pyridin-5-yl)methylamino)benzamide]",7.77
